“Also recorded” adds a separate entry of the source.
Tested on: ONC-T18
Assay: Fatty acid production antagonist supplementation of ONC-T18 culture, fatty acid profile by FAME GC-FID
Format: cell-based, Thraustochytrium sp. ONC-T18
Method: Media containing 25 g/l sea salt and 1 g/l yeast extract was autoclaved at 120° C. for 20 minutes. Sterilized glucose was added to the media at a concentration of 9 g/l. Sethoxydim (Supleco) was dissolved in dimethyl sulfoxide at a concentration of 5 mg/ml was then added to the media at to represent a final concentration of 100 µM. 1 ml of a 24 hour pre-culture of ONC-T 18 that had been cultured in the same media was added. Culturing was carried out in a shaker (130 rpm) for four days at room temperature. After the incubation period, cells were harvested by centrifugation at 4300 rpm for 10 minutes. The cell pellets were then freeze-dried, weighed and the oil was extracted from the cells.
(§1) The lipids were extracted and derivatized to fatty acid methyl esters (FAME) for gas chromatography analysis (GC). Transesterification and extraction was done using 200 mg freeze dried cells, with C19:0 as internal standard, added transesterification reaction mix (methanol:hydrochloric acid:chloroform, 10:1:1) mixed and heated at 90° C. for 2 hours, then allowed to cool at room temperature. FAMEs were extracted by adding 1 ml water, and 2 ml hexane:chloroform (4:1), and allow organic and aqueous phases to separate. The organic layer was extracted and treated with 0.5 g of anhydrous sodium sulfate to remove particulates and residual water. The organic solvents were evaporated under a stream of argon. The FAMEs were re-suspended in 5 ml of iso-octane and analyzed by GC-FID. The percent conversion was calculated by dividing the product produced by the sum of (the product produced plus the substrate added) and then multiplying by 100.
Media containing 6 g/l sea salt, 2 g/l yeast extract, and 8 g/l L-glutamic acid monosodium salt hydrate was autoclaved at 120° C. for 20 minutes. Sterilized D+-glucose was then added to this media at a concentration of 40 g/l. Cerulenin dissolved in ethanol at a concentration of 5 mg/ml was added to 250 ml flask and the solvent was evaporated for 1 hour prior to adding the media to the flask. The amount of cerulenin in the flask represented a final concentration of 20 mg/l. ONC-T18 was then added to the medium from a plate culture and culturing occurred in a shaker (130 rpm) at room temperature for four days. After the incubation period, cells were harvested by centrifugation at 4300 rpm for 10 minutes, washed once with distilled water, and then centrifuged again at 4300 rpm for 10 minutes. The cell pellets were then freeze-dried, weighed and the oil was extracted from the cells.
as §1, with “produced+the” for “produced plus the”
Media containing 6 g/l sea salt, 2 g/l yeast extract, and 8 g/l L-glutamic acid monosodium salt hydrate was autoclaved at 120° C. for 20 minutes. Sterilized D+-glucose wad then added at a concentration of 5 g/l or was not added to the media. Oleic acid was added to the media to represent a final concentration of 2 ml/l. […]

[1] = oleic acid in combination with glucoase
[2] = presence of the antagonist, oleic acid without glucose

## CCCCCCCC/C=C\CCCCCCCC(=O)O [oleic acid]
Antagonist added to medium
  DHA accumulated in ONC-T18, change versus control (in words): most of the oleic acid was converted into DHA; also recorded: more DHA content was observed; also recorded: increase in the content and proportion of DHA
  EPA in ONC-T18 fatty acid profile, change versus control (in words): elevation of the EPA content; also recorded: elevated level of EPA
[1]
  adrenic acid, lipid as percentage of total fatty acid: 0.28%
  arachidic acid, lipid as percentage of total fatty acid: 0.34%
  arachidonic acid, lipid as percentage of total fatty acid: 0.46%
  behenic acid, lipid as percentage of total fatty acid: 0.00%
  docosadienoic acid, lipid as percentage of total fatty acid: 0.43%
  docosahexaenoic acid, lipid as percentage of total fatty acid: 24.65%
  docosapentaenoic acid n-3, lipid as percentage of total fatty acid: 0.39%
  docosapentaenoic acid n-6, lipid as percentage of total fatty acid: 6.46%
  eicosadienoic acid, lipid as percentage of total fatty acid: 0.36%
  eicosapentaenoic acid, lipid as percentage of total fatty acid: 2.60%
  eicosatetraenoic acid, lipid as percentage of total fatty acid: 0.24%
  eicosatrienoic acid, lipid as percentage of total fatty acid: 0.00%
  eicosenoic acid, lipid as percentage of total fatty acid: 0.30%
  heneicosapentaenoic acid, lipid as percentage of total fatty acid: 0.79%
  hexacosanoic acid, lipid as percentage of total fatty acid: 0.00%
  homo-gamma-linolenic acid, lipid as percentage of total fatty acid: 0.30%
  lignoceric acid, lipid as percentage of total fatty acid: 0.00%
  margaric acid, lipid as percentage of total fatty acid: 0.17%
  myristic acid, lipid as percentage of total fatty acid: 8.04%
  myristoleic acid, lipid as percentage of total fatty acid: 0.00%
  nervonic acid, lipid as percentage of total fatty acid: 0.00%
  oleic acid, lipid as percentage of total fatty acid: 9.49%
  palmitic acid, lipid as percentage of total fatty acid: 33.18%
  palmitoleic acid, lipid as percentage of total fatty acid: 4.22%
  pentadecanoic acid, lipid as percentage of total fatty acid: 0.73%
  pentadecenoic acid, lipid as percentage of total fatty acid: 0.00%
  stearic acid, lipid as percentage of total fatty acid: 1.60%
  vaccenic acid, lipid as percentage of total fatty acid: 4.45%
[2]
  adrenic acid, lipid as percentage of total fatty acid: 0.60%
  arachidic acid, lipid as percentage of total fatty acid: 0.00%
  arachidonic acid, lipid as percentage of total fatty acid: 0.72%
  behenic acid, lipid as percentage of total fatty acid: 0.00%
  docosadienoic acid, lipid as percentage of total fatty acid: 0.68%
  docosahexaenoic acid, lipid as percentage of total fatty acid: 33.16%
  docosapentaenoic acid n-3, lipid as percentage of total fatty acid: 0.39%
  docosapentaenoic acid n-6, lipid as percentage of total fatty acid: 7.58%
  eicosadienoic acid, lipid as percentage of total fatty acid: 0.51%
  eicosapentaenoic acid, lipid as percentage of total fatty acid: 5.47%
  eicosatetraenoic acid, lipid as percentage of total fatty acid: 0.00%
  eicosatrienoic acid, lipid as percentage of total fatty acid: 0.00%
  eicosenoic acid, lipid as percentage of total fatty acid: 0.00%
  heneicosapentaenoic acid, lipid as percentage of total fatty acid: 0.20%
  hexacosanoic acid, lipid as percentage of total fatty acid: 0.00%
  homo-gamma-linolenic acid, lipid as percentage of total fatty acid: 0.61%
  lignoceric acid, lipid as percentage of total fatty acid: 0.00%
  margaric acid, lipid as percentage of total fatty acid: 0.28%
  myristic acid, lipid as percentage of total fatty acid: 1.38%
  myristoleic acid, lipid as percentage of total fatty acid: 0.00%
  nervonic acid, lipid as percentage of total fatty acid: 0.00%
  oleic acid, lipid as percentage of total fatty acid: 25.36%
  palmitic acid, lipid as percentage of total fatty acid: 16.67%
  palmitoleic acid, lipid as percentage of total fatty acid: 1.06%
  pentadecanoic acid, lipid as percentage of total fatty acid: 0.49%
  pentadecenoic acid, lipid as percentage of total fatty acid: 0.00%
  stearic acid, lipid as percentage of total fatty acid: 1.56%
  vaccenic acid, lipid as percentage of total fatty acid: 2.68%

## Cc1ccccc1C(=O)O [toluic acid]
[2]
  adrenic acid, lipid as percentage of total fatty acid: 0.46%
  arachidic acid, lipid as percentage of total fatty acid: 0.23%
  arachidonic acid, lipid as percentage of total fatty acid: 0.90%
  behenic acid, lipid as percentage of total fatty acid: 0.00%
  docosadienoic acid, lipid as percentage of total fatty acid: 0.06%
  docosahexaenoic acid, lipid as percentage of total fatty acid: 23.03%
  docosapentaenoic acid n-3, lipid as percentage of total fatty acid: 0.54%
  docosapentaenoic acid n-6, lipid as percentage of total fatty acid: 5.95%
  eicosadienoic acid, lipid as percentage of total fatty acid: 0.79%
  eicosapentaenoic acid, lipid as percentage of total fatty acid: 2.95%
  eicosatetraenoic acid, lipid as percentage of total fatty acid: 0.36%
  eicosatrienoic acid, lipid as percentage of total fatty acid: 0.03%
  eicosenoic acid, lipid as percentage of total fatty acid: 0.14%
  heneicosapentaenoic acid, lipid as percentage of total fatty acid: 0.39%
  hexacosanoic acid, lipid as percentage of total fatty acid: 0.00%
  homo-gamma-linolenic acid, lipid as percentage of total fatty acid: 0.17%
  lignoceric acid, lipid as percentage of total fatty acid: 0.03%
  margaric acid, lipid as percentage of total fatty acid: 2.69%
  myristic acid, lipid as percentage of total fatty acid: 11.19%
  myristoleic acid, lipid as percentage of total fatty acid: 0.00%
  nervonic acid, lipid as percentage of total fatty acid: 0.18%
  oleic acid, lipid as percentage of total fatty acid: 0.11%
  palmitic acid, lipid as percentage of total fatty acid: 26.90%
  palmitoleic acid, lipid as percentage of total fatty acid: 2.36%
  pentadecanoic acid, lipid as percentage of total fatty acid: 14.93%
  pentadecenoic acid, lipid as percentage of total fatty acid: 0.27%
  stearic acid, lipid as percentage of total fatty acid: 1.59%
  vaccenic acid, lipid as percentage of total fatty acid: 3.68%

## C/C=C/C/C=C/CCC(=O)[C@H]1O[C@H]1C(N)=O [cerulenin]
Antagonist added to medium
  C16:0 content in ONC-T18, change versus control (in words): increases
  DHA accumulated in ONC-T18, change versus control (in words): increases; also recorded: increase in the content and proportion of DHA
[2]
  adrenic acid, lipid as percentage of total fatty acid: 0.00%
  arachidic acid, lipid as percentage of total fatty acid: 0.41%
  arachidonic acid, lipid as percentage of total fatty acid: 0.30%
  behenic acid, lipid as percentage of total fatty acid: 0.11%
  docosadienoic acid, lipid as percentage of total fatty acid: 0.14%
  docosahexaenoic acid, lipid as percentage of total fatty acid: 19.97%
  docosapentaenoic acid n-3, lipid as percentage of total fatty acid: 0.23%
  docosapentaenoic acid n-6, lipid as percentage of total fatty acid: 5.83%
  eicosadienoic acid, lipid as percentage of total fatty acid: 0.17%
  eicosapentaenoic acid, lipid as percentage of total fatty acid: 1.17%
  eicosatetraenoic acid, lipid as percentage of total fatty acid: 0.36%
  eicosatrienoic acid, lipid as percentage of total fatty acid: 0.00%
  eicosenoic acid, lipid as percentage of total fatty acid: 0.19%
  heneicosapentaenoic acid, lipid as percentage of total fatty acid: 1.24%
  hexacosanoic acid, lipid as percentage of total fatty acid: 0.23%
  homo-gamma-linolenic acid, lipid as percentage of total fatty acid: 0.20%
  lignoceric acid, lipid as percentage of total fatty acid: 0.00%
  margaric acid, lipid as percentage of total fatty acid: 0.74%
  myristic acid, lipid as percentage of total fatty acid: 11.03%
  myristoleic acid, lipid as percentage of total fatty acid: 0.00%
  nervonic acid, lipid as percentage of total fatty acid: 0.00%
  oleic acid, lipid as percentage of total fatty acid: 0.29%
  palmitic acid, lipid as percentage of total fatty acid: 48.98%
  palmitoleic acid, lipid as percentage of total fatty acid: 2.22%
  pentadecanoic acid, lipid as percentage of total fatty acid: 3.23%
  pentadecenoic acid, lipid as percentage of total fatty acid: 0.10%
  stearic acid, lipid as percentage of total fatty acid: 1.86%
  vaccenic acid, lipid as percentage of total fatty acid: 1.24%
